How the values were obtained:
RON tyrosine kinase = biological target: T1, RON tyrosine kinase (Homo sapiens, UniProt Q04912); assay: Enzyme inhibitory activity against RON tyrosine kinase (TR-FRET); assay type: biochemical; conditions: RON (Carna Bioscience)
T1 construct: purchased Carna Bioscience
In short: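 Recombinant RON was preincubated with compound for 15 min at RT in 50 mM HEPES pH 7.5, 10 mM MgCl2, 1 mM EGTA, 2 mM DTT, 0.01% Tween-20. Enzyme (0.4 nM), ATP (60 μM) and tyrosine peptide (400 nM) were prepared at 2×, 4× and 4× final. After 60 min at RT, EDTA/Eu-anti-phosphotyrosine stop; IC50 from 665 nm TR-FRET emission.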

[1] = test system: cancer cell line KM12C, in which RON is activated; assay: Cell growth inhibitory ability in RON-activated cancer cell line (MTS); assay type: cell-based; conditions: Homo sapiens, 48 hours, absorbance 490 nm
In short: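 KM12C cells (RON-activated, MEM with FBS) exposed to compound […] for 48 h. MTS added 24 h after treatment ended, incubated 4 h at 37° C, absorbance read at 490 nm. IC50 derived from absorbance.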

[2] = test system: cancer cell line KM12C, in which RON is activated; assay: Cell-killing efficacy in RON-activated cancer cell line (trypan blue); assay type: cell-based; conditions: for cytotoxicity at 1 µM / cytotoxicity at 5 µM: Homo sapiens, 48 hours, trypan blue, n=2, read-out: Cell death (%) Cancer cell line KM12C; for cell-killing effect (in words): as compared with the positive control
In short: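 KM12C cells seeded 1×10^5 per 60 mm^2 dish in MEM + 10% FBS, then exposed 24 h later to compound at 1 μM or 5 μM for 48 h.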

[3] = test system: cancer cell line HT29, in which mutated RON (Δ160) is expressed; assay: Cell-killing efficacy in RON-mutated cancer cell line HT29 (trypan blue); assay type: cell-based; conditions: for cytotoxicity at 1 µM / cytotoxicity at 5 µM: Homo sapiens, HT-29, 48 hours, trypan blue, n=2, read-out: Cell death (%) Cancer cell line HT29; for cell-killing effect (in words): HT29, as compared with the positive control
Procedure: (§1) Experimental Example 4: Measurement of Cell-Killing Efficacy of Example Compounds in RON-Mutated Cancer Cell Lines
(§2) Each of two colorectal cancer cell lines, that is, the cancer cell line HT29 (30038, KCLB, RPMI+10% FBS), in which mutated RON (Δ160) is expressed, and the cancer cell line SW620 (CCL-227, ATCC, RPMI+10% FBS), in which mutated RON (Δ155) is expressed, was dispensed into each 60 mm^2 dish at 1×10^5 cells. After 24 hours, the dish was treated with each of the example compounds at a concentration of 1 μM or 5 μM while performing medium exchange, and then reaction was allowed to proceed for 48 hours. After 48 hours, centrifugation was performed for 4 minutes at 1,500 rpm to collect cells and cell fluid. Thereafter, living cells and dead cells were quantified (n=2) using a trypan blue solution (15250-061, Gibco), and statistical analysis was performed using Excel-T-test. Here, as a negative control, only a solvent (0.10% DMSO) was used; and as a positive control, N-(4-(2-amino-3-chloropyridin-4-yloxy)-3-fluorophenyl)-4-ethoxy-1-(4-fluorophenyl)-2-oxo-1,2-dihydropyridine-3-carboxamide, which is the compound of Example 1 in WO 2008/058229 A1, was used.

[4] = test system: cancer cell line SW620, in which mutated RON (Δ155) is expressed; assay: Cell-killing efficacy in RON-mutated cancer cell line SW620 (trypan blue); assay type: cell-based; conditions: for cytotoxicity at 1 µM / cytotoxicity at 5 µM: Homo sapiens, SW-620, 48 hours, trypan blue, n=2, read-out: Cell death (%) Cancer cell line SW620; for cell-killing effect (in words): SW620, as compared with the positive control
Procedure: as §1, §2

T1 sequence (Q04912 25-1400): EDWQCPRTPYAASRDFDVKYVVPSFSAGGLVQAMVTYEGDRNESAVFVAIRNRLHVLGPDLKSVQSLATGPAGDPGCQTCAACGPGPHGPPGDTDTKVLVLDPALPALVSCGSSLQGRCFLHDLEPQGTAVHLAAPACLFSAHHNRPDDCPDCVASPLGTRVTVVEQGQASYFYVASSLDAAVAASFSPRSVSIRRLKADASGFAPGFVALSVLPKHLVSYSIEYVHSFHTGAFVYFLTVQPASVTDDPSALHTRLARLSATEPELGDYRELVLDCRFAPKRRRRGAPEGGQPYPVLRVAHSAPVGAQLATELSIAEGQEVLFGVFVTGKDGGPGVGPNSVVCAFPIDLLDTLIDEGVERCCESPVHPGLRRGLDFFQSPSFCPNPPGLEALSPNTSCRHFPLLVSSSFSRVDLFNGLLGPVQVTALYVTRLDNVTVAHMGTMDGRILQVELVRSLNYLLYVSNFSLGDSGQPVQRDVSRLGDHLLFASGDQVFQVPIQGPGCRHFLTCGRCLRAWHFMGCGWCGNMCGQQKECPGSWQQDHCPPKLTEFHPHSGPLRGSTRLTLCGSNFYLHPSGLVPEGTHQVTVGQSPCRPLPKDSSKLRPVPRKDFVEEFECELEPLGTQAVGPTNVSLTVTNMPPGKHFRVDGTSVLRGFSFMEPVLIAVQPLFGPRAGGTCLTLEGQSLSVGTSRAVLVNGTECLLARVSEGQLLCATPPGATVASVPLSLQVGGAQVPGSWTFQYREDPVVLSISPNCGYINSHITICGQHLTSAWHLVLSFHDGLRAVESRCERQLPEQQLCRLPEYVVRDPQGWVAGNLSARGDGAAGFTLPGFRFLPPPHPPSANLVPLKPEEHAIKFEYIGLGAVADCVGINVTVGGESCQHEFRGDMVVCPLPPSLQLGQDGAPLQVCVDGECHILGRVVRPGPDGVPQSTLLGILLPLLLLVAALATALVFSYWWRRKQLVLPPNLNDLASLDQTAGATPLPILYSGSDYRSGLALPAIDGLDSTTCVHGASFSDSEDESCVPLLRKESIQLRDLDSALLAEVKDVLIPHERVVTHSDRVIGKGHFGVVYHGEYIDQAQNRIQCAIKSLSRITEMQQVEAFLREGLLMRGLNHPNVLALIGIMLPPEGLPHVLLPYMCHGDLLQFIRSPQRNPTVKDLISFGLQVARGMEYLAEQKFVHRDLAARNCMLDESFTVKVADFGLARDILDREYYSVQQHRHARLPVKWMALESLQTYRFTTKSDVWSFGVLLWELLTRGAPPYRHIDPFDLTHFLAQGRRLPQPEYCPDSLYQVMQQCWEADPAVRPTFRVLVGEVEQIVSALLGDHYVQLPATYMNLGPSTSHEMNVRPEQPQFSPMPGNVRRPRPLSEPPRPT

Q: What does the source list for `Cn1cnc(-c2cc3nccc(Oc4ccc(NC(=O)c5c6c(cn(-c7ccc(F)cc7)c5=O)CCO6)cc4F)c3s2)c1` [Example 8, N-(3-Fluoro-4-((2-(1-methyl-1H-imidazol-4-yl)thieno[3,2-b]pyridin-7-yl)oxy)phenyl)-5-(4-fluorophenyl)-6-oxo-2,3,5,6-tetrahydrofuro[3,2-c]pyridine-7-carboxamide]?
A: IC50 (RON tyrosine kinase): 0.66 nM; IC50 [1]: 0.3 nM; cytotoxicity at 1 µM [2]: 32.4%; cytotoxicity at 5 µM [2]: 46.9%; cytotoxicity at 1 µM [3]: 4.88%; cytotoxicity at 5 µM [3]: 16.8%; cytotoxicity at 1 µM [4]: 5.98%; cytotoxicity at 5 µM [4]: 7.83%

Q: With `COc1cc2nccc(Oc3ccc(NC(=O)c4c5c(cn(-c6ccc(F)cc6)c4=O)CCO5)cc3F)c2cc1NC(C)=O` [Example 52, N-(4-((6-Acetamido-7-methoxyquinolin-4-yl)oxy)-3-fluorophenyl)-5-(4-fluorophenyl)-6-oxo-2,3,5,6-tetrahydrofuro[3,2-c]pyridine-7-carboxamide] as the compound, how does the IC50 (RON tyrosine kinase) read?
A: 1.83 nM

Q: What about the IC50 [1] of the same compound?
A: 1 nM

Q: What about the cytotoxicity at 1 µM [2] of the same compound?
A: 10.1%

Q: What about the cytotoxicity at 5 µM [2] of the same compound?
A: 24.7%

Q: What about the cytotoxicity at 1 µM [3] of the same compound?
A: 10.5%

Q: What about the cytotoxicity at 5 µM [3] of the same compound?
A: 16.1%

Q: And the cytotoxicity at 1 µM [4]?
A: 13.6%

Q: What about the cytotoxicity at 5 µM [4] of the same compound?
A: 81.8%

Q: What does the source list for `COc1cc2c(Oc3ccc(NC(=O)c4c5c(cn(-c6ccc(F)cc6)c4=O)CCO5)cc3F)ccnc2cc1OCCCN1CCOCC1` [Example 76, N-(3-Fluoro-4-((6-methoxy-7-(3-morpholinopropoxy)quinolin-4-yl)oxy)phenyl)-5-(4-fluorophenyl)-6-oxo-2,3,5,6-tetrahydrofuro[3,2-c]pyridine-7-carboxamide]?
A: IC50 (RON tyrosine kinase): 1.79 nM; IC50 [1]: 4 nM; cytotoxicity at 1 µM [2]: 35.7%; cytotoxicity at 5 µM [2]: 38.3%; cell-killing effect (in words) [2]: high cell-killing effect; cell-killing effect (in words) [3]: high cell-killing effect; cytotoxicity at 1 µM [3]: 21.9%; cytotoxicity at 5 µM [3]: 28.6%; cytotoxicity at 1 µM [4]: 46.4%; cytotoxicity at 5 µM [4]: 67.8%; cell-killing effect (in words) [4]: high cell-killing effect

Q: Which results are given for `COc1cc2c(Oc3ccc(NC(=O)c4c5c(cn(-c6ccc(F)cc6)c4=O)CCO5)cc3F)ccnc2cc1OCCN1CC(C#N)C1` [Example 125]?
A: IC50 [1]: 3 nM; cytotoxicity at 1 µM [2]: 22.3%; cytotoxicity at 5 µM [2]: 39.6%; cell-killing effect (in words) [2]: high cell-killing effect; cell-killing effect (in words) [3]: high cell-killing effect; cytotoxicity at 1 µM [3]: 39.4%; cytotoxicity at 5 µM [3]: 67.8%; cytotoxicity at 1 µM [4]: 60.9%; cytotoxicity at 5 µM [4]: 91.5%; cell-killing effect (in words) [4]: high cell-killing effect

Q: Which results are given for `COc1cc2c(Oc3ccc(NC(=O)c4c5c(cn(-c6ccc(F)cc6)c4=O)CCO5)cc3F)ccnc2cc1OCCN1CCC(F)(F)C1` [Example 134, N-(4-((7-(2-(3,3-Difluoropyrrolidin-1-yl)ethoxy)-6-methoxyquinolin-4-yl)oxy)-3-fluorophenyl)-5-(4-fluorophenyl)-6-oxo-2,3,5,6-tetrahydrofuro[3,2-c]pyridine-7-carboxamide]?
A: IC50 [1]: 2 nM; cytotoxicity at 1 µM [2]: 35.5%; cytotoxicity at 5 µM [2]: 47.4%; cell-killing effect (in words) [2]: high cell-killing effect; cell-killing effect (in words) [3]: high cell-killing effect; cytotoxicity at 1 µM [3]: 47%; cytotoxicity at 5 µM [3]: 82.2%; cytotoxicity at 1 µM [4]: 76.1%; cytotoxicity at 5 µM [4]: 82.8%; cell-killing effect (in words) [4]: high cell-killing effect

Q: What does the source list for `COc1cc2c(Oc3ccc(NC(=O)c4c5c(cn(-c6ccc(F)cc6)c4=O)CCO5)cc3F)ccnc2cc1OCCN1CCC(F)(F)CC1` [Example 145, N-(4-((7-(2-(4,4-Difluoropiperidin-1-yl)ethoxy)-6-methoxyquinolin-4-yl)oxy)-3-fluorophenyl)-5-(4-fluorophenyl)-6-oxo-2,3,5,6-tetrahydrofuro[3,2-c]pyridine-7-carboxamide]?
A: IC50 [1]: 2 nM; cytotoxicity at 1 µM [2]: 25.7%; cytotoxicity at 5 µM [2]: 45.4%; cytotoxicity at 1 µM [3]: 16.4%; cytotoxicity at 5 µM [3]: 81.4%; cytotoxicity at 1 µM [4]: 11%; cytotoxicity at 5 µM [4]: 87.1%

Q: How did the IC50 (RON tyrosine kinase) turn out when `O=C(Nc1ccc(Oc2ccnc3cc(OCCCN4CCOCC4)ccc23)c(F)c1)c1c2c(cn(-c3ccc(F)cc3)c1=O)CCO2` [Example 158, N-(3-Fluoro-4-((7-(3-morpholinopropoxy)quinolin-4-yl)oxy)phenyl)-5-(4-fluorophenyl)-6-oxo-2,3,5,6-tetrahydrofuro[3,2-c]pyridine-7-carboxamide] was run?
A: 1.99 nM

Q: And the IC50 [1]?
A: 5 nM

Q: What about the cytotoxicity at 1 µM [2] of the same compound?
A: 24.1%

Q: What about the cytotoxicity at 5 µM [2] of the same compound?
A: 37.1%

Q: What about the cytotoxicity at 1 µM [3] of the same compound?
A: 15.2%

Q: What about the cytotoxicity at 5 µM [3] of the same compound?
A: 30.9%

Q: And the cytotoxicity at 1 µM [4]?
A: 11.6%

Q: What about the cytotoxicity at 5 µM [4] of the same compound?
A: 92.3%

Q: For `COc1cc2c(Oc3ccc(NC(=O)c4c5c(cn(-c6ccc(F)cc6)c4=O)CCO5)cc3F)ccnc2cc1N` [Example 181, N-(4-((7-Amino-6-methoxyquinolin-4-yl)oxy)-3-fluorophenyl)-5-(4-fluorophenyl)-6-oxo-2,3,5,6-tetrahydrofuro[3,2-c]pyridine-7-carboxamide], which IC50 (RON tyrosine kinase) is on record?
A: 5.92 nM

Q: What about the IC50 [1] of the same compound?
A: 2 nM

Q: What about the cytotoxicity at 1 µM [2] of the same compound?
A: 14.6%

Q: And the cytotoxicity at 5 µM [2]?
A: 36.8%

Q: And the cytotoxicity at 1 µM [3]?
A: 10.2%

Q: What about the cytotoxicity at 5 µM [3] of the same compound?
A: 99.1%

Q: What about the cytotoxicity at 1 µM [4] of the same compound?
A: 11.3%

Q: And the cytotoxicity at 5 µM [4]?
A: 35%

Q: Which results are given for `COc1cc2c(Oc3ccc(NC(=O)c4c5c(cn(-c6ccc(F)cc6)c4=O)CCO5)cc3F)ccnc2cc1NC(C)=O` [Example 184, N-(4-((7-Acetamido-6-methoxyquinolin-4-yl)oxy)-3-fluorophenyl)-5-(4-fluorophenyl)-6-oxo-2,3,5,6-tetrahydrofuro[3,2-c]pyridine-7-carboxamide]?
A: IC50 (RON tyrosine kinase): 0.92 nM; IC50 [1]: 2 nM; cytotoxicity at 1 µM [2]: 13.8%; cytotoxicity at 5 µM [2]: 54.2%; cytotoxicity at 1 µM [3]: 7.9%; cytotoxicity at 5 µM [3]: 23.2%; cytotoxicity at 1 µM [4]: 5%; cytotoxicity at 5 µM [4]: 29.8%

Q: Which results are given for `COc1cc2nccc(Oc3ccc(NC(=O)c4c5c(cn(-c6ccc(F)cc6)c4=O)CCO5)cc3F)c2cc1NCCN1CCOCC1` [Example 185, N-(3-Fluoro-4-((7-methoxy-6-((2-morpholinoethyl)amino)quinolin-4-yl)oxy)phenyl)-5-(4-fluorophenyl)-6-oxo-2,3,5,6-tetrahydrofuro[3,2-c]pyridine-7-carboxamide]?
A: IC50 (RON tyrosine kinase): 4.67 nM; IC50 [1]: 1 nM; cytotoxicity at 1 µM [2]: 32.5%; cytotoxicity at 5 µM [2]: 63.8%; cell-killing effect (in words) [2]: high cell-killing effect; cell-killing effect (in words) [3]: high cell-killing effect; cytotoxicity at 1 µM [3]: 5.1%; cytotoxicity at 5 µM [3]: 32.4%; cytotoxicity at 1 µM [4]: 28.1%; cytotoxicity at 5 µM [4]: 70.2%; cell-killing effect (in words) [4]: high cell-killing effect

Q: How did the IC50 (RON tyrosine kinase) turn out when `COc1cc2c(Oc3ccc(NC(=O)c4c5c(cn(-c6ccc(F)cc6)c4=O)CCO5)cc3F)ccnc2cc1NCCN1CCOCC1` [Example 187, N-(3-Fluoro-4-((6-methoxy-7-((2-morpholinoethyl)amino)quinolin-4-yl)oxy)phenyl)-5-(4-fluorophenyl)-6-oxo-2,3,5,6-tetrahydrofuro[3,2-c]pyridine-7-carboxamide] was run?
A: 3.86 nM

Q: What about the IC50 [1] of the same compound?
A: 6 nM

Q: What about the cytotoxicity at 1 µM [2] of the same compound?
A: 20.4%

Q: And the cytotoxicity at 5 µM [2]?
A: 60%

Q: What about the “cell-killing effect (in words)” value [2] of the same compound?
A: high cell-killing effect

Q: What about the “cell-killing effect (in words)” value [3] of the same compound?
A: high cell-killing effect

Q: And the cytotoxicity at 1 µM [3]?
A: 8.4%

Q: And the cytotoxicity at 5 µM [3]?
A: 34.3%

Q: And the cytotoxicity at 1 µM [4]?
A: 23.9%

Q: What about the cytotoxicity at 5 µM [4] of the same compound?
A: 50.5%

Q: And the “cell-killing effect (in words)” value [4]?
A: high cell-killing effect

Q: `CCOc1ccn(-c2ccc(F)cc2)c(=O)c1C(=O)Nc1ccc(Oc2ccnc(N)c2Cl)c(F)c1` [Positive control, N-(4-(2-amino-3-chloropyridin-4-yloxy)-3-fluorophenyl)-4-ethoxy-1-(4-fluorophenyl)-2-oxo-1,2-dihydropyridine-3-carboxamide, reference compound] was tested. Which IC50 [1] did it give?
A: 133 nM

Q: And the cytotoxicity at 1 µM [2]?
A: 9.94%

Q: And the cytotoxicity at 5 µM [2]?
A: 12.8%

Q: What about the cytotoxicity at 1 µM [3] of the same compound?
A: 10.4%

Q: What about the cytotoxicity at 5 µM [3] of the same compound?
A: 16.1%

Q: And the cytotoxicity at 1 µM [4]?
A: 3.46%

Q: What about the cytotoxicity at 5 µM [4] of the same compound?
A: 9.28%

Reference: patent publication US20220235064A1 (WELLMARKER BIO CO., LTD., priority 2019, published 2022)
